Test results taken from patent publication US7250157B2, “Dermatological compositions and methods” (Applied Genetics Incorporated Dermatics, priority 1996, dated 2007).
Where “and” joins values, the source holds several entries; their conditions need not be identical. Identical values can stand only once. Like-named read-outs stand apart in the source and are kept apart here.

Legend:
[1] = test system: Tyrosinase in normal human epidermal melanocytes (NHEM); assay: Tyrosinase in NHEM (in situ, cellular, extracellular particulate, media); format: cell-based
Procedure: Tyrosinase was measured in normal human epidermal melanocytes (NHEM) using procedures identical to those described for S91 cells (Example 6), […], 1600×g, or 17,300×g for analysis of tyrosinase activity in the extracellular exported melanosomal particulate fraction, and in the resultant supernatant media fraction. In some cases (Table 11), tyrosinase was also measured by an in situ assay wherein radiolabelled tyrosine was added directly to freshly replaced media of NHEM for a period of 24 hrs following a 5 day treatment period (Abdel-Malek, et al., 1992, J. Cell. Physiol. 150:416-425). […] Both 5 mM 5-NBene-2,2-DM and 25 mM 3,3-M-1,2-BD induced more tyrosinase in each of these assays and fractions than did 1,2-PG. IBMX (3-isobutyl-1-methyl-xanthine) provided as a positive control, induced as much tyrosinase as 5 mM 5-NBene-2,2-DM in the in situ assay, but less in cellular, extracellular particulate and media fractions (Table 11).

[2] = test system: tyrosinase activity in S91 mouse melanoma cells; assay: Induction of tyrosinase activity in S91 cells
Procedure: Compounds were examined for their ability to induce tyrosinase activity in S91 mouse melanoma cells. […] Following treatments, cells were trypsinized, counted by Coulter, pelleted by centrifugation at 1000×g, and analyzed for tyrosinase activity using modifications of previously described procedures (Pomerantz, S. H., 1966, J. Biol. Chem. 241:161-168; Jara, et al., 1988, Pigment Cell Res. 1: 332-339.). Briefly, cell pellets were solubilized by sonicating for 5 seconds in 600 ul 50 mM phosphate buffer pH 6.8 containing 0.5% Triton-X100, followed by vortexing, incubation on ice for 30 min, and then revortexing. From this, 200 ul aliquots were combined with 200 ul of reaction mixture containing either 75 uM tyrosine, 75 uM L-Dopa, and 2 uCi L-[3,5-^3H]Tyrosine in 50 mM NaPO4 pH 6.8 (L-Dopa+), or, 75 uM tyrosine, and 2 uCi L-[3,5-^3H]Tyrosine in 50 mM NaPO4 pH 6.8 (L-Dopa−) and incubated 1 hr at 37° C. Reactions were stopped by addition of 400 ul 10% activated charcoal in 0.1N HCl and incubation on ice for 15 min. This mixture was centrifuged at 17,300×g for 5 min, and 400 ul supernatant was then filtered through a 0.22 uM GV Durapore centifugal filter unit (Millipore) by centrifuging at 17,300×g for 5 min. Filtrate was added to 4 ml Fisher Plus scintillation fluid and counted on a Hewlett Packard scintillation counter. Tyrosinase activity was calculated as dpm/hr/ug protein and dpm/hr/10^3 cells. Each sample was analyzed with and without L-Dopa, a necessary cofactor for tyrosinase (Pomerantz, S. H., 1966, J. Biol. Chem. 241:161-168; McLane, et al., 1987, Biochem. Biophys. Res. Commun. 145:719-725). All reported tyrosinase values are exclusive of counts that occurred in buffer blanks and L-dopa negative aliquots. Protein was determined on aliquots of cell lysate, extracellular particulate lysate or media by the Bradford Coomassie Blue method (Bradford, 1967, Anal. Biochem. 72:248-254) using Bio-Rad Protein Assay Kit I.

[3] = test system: Cloudman S91 mouse melanoma cell line; assay: Melanin content of S91 cells after treatment with test compound; format: cell-based; settings: for melanogenesis in S91 cells (in words): PKC inhibitors
Procedure: The Cloudman S91 mouse melanoma cell line was obtained from American Type Culture Collection (ATCC). […] For testing propylene glycol and analogues for induction of melanogenesis, S91 cells were plated at 10^5 cells/35 mm dish in 10% calf serum. […] Cells were cultured for 6 days at 37° C. in 5% CO2 in a humidified incubator. Following this treatment period, cells were examined microscopically and the portion of dedifferentiated and differentiated cells was estimated.
Following this microscopic examination, cells were detached from dishes by trypsin. The time required for detachment by trypsin was recorded as an additional indicator of the phenotypic effects of test compounds. For each treatment, a subsample of cells was counted to determine the effects of treatment compounds on cellular proliferation. The remainder of cells were used for determination of melanin content. […] Absorbance of standards and samples was measured at 475 nm. Melanin was expressed as pg melanin/cell.

[4] = test system: American short-haired guinea pigs; assay: Topical melanogenesis (pigmentation rating) in guinea pigs; format: in vivo, guinea pig; set-up: Pigmentation Rating / Pigmentation Rating Background Corrected: scale not given here; settings: for relative melanogenesis rating (mean ±SE), scale 0-4: 25 μl twice per day for 5 days, rated two weeks after
Procedure: Compounds were tested for melanogenic activity in vivo by application to American short-haired guinea pigs. Treatment sites were created by removal of fur using Nair® brand depilatory. In the Table, the numbers presented are the relative melanogenesis rating (mean ±SE), and are arranged according to the relative location on the animal, with the head being to the left and the tail being to the right. Propylene glycol (PG=13.6M), 2,3-butanediol (2,3-BD=10.95M), and 1,2-cis-cyclopentanediol (1,2-cs-CPD=10.7M) were applied as full strength solutions. 3,3-dimethyl-1,2-butanediol (3,3-M-1,2-BD) was applied as a 4M solution dissolved in ethanol. Two weeks following cessation of treatments, the degree of pigmentation was subjectively rated according to the following scale:
In order to minimize the effects of dimunition of response from head to tails of animals, all future experiments were done using only treatment spots located towards the tails of animals (c and d in Table 7). Deemed as additionally beneficial, in this area of the animal differences of responsiveness to strong and weak inducers of pigmentation, as deduced from cell culture, were greatest. […] Pigmentation ratings were corrected for background (control treatment spots), normalized to 1M to account for the different amounts of each agent applied, and then normalized to results for 1,2-PG (Table 8). […] It is anticipated that further improvements in formulation will additionally improve responsiveness to 5-NBene-2,2-DM and other compounds in this invention.
In FIG. 5, a, b, c and d indicate treatment spots that transverse the anterior-posterior axis along the backs of guinea pigs.

[5] = range of concentrations up to a toxic dose
[6] = No Penetration Enhancer, concentrations as E85
[7] = 5 day treatment, concentrations as E130
[8] = pair of replicates, concentrations as E130
[9] = 300 mM PG-1,2, 25 mM 3,3-M-1,2-BD, 50 mM 1,2-cs-CPD, 5 mM 5-NBene-2,2-DM, 0.5 mM 2,3-Pyd, 0.1 mM IBMX, mean ±SE

For `OCC1CC2CCC1C2` (stereo not drawn) [2-NBaneM, 2-Norbornanemethanol], the “Tyrosinase Cellular” value ([1]; Black-Neonatal-NHEM, 1 mM) was 10863 dpm/hr/10^3 cells, the “Tyrosinase Cellular relative to Control” value ([1]; Black-Neonatal-NHEM, 1 mM) was 1.10 X and the “Tyrosinase In Situ” value ([1]; Black-Neonatal-NHEM, 1 mM) was 12.1 dpm/hr/10^3 cells. The “Tyrosinase In Situ relative to Control” value ([1]; Black-Neonatal-NHEM, 1 mM) was 0.97 X, the “Tyrosinase Media relative to Control” value ([1]; Black-Neonatal-NHEM, 1 mM) was 1.68 X and the “Tyrosinase Media” value ([1]; Black-Neonatal-NHEM, 1 mM, media from 1 day treatment period) was 18.7 dpm/hr/10^3 cells. The “Tyrosinase Cellular” value ([1]; Black-Neonatal-NHEM, 5 mM) was 17397 dpm/hr/10^3 cells, the “Tyrosinase Cellular relative to Control” value ([1]; Black-Neonatal-NHEM, 5 mM) was 1.77 X and the “Tyrosinase In Situ” value ([1]; Black-Neonatal-NHEM, 5 mM) was 12.8 dpm/hr/10^3 cells. The “Tyrosinase In Situ relative to Control” value ([1]; Black-Neonatal-NHEM, 5 mM) was 1.02 X, the “Tyrosinase Media relative to Control” value ([1]; Black-Neonatal-NHEM, 5 mM) was 3.36 X and the “Tyrosinase Media” value ([1]; Black-Neonatal-NHEM, 5 mM, media from 1 day treatment period) was 37.3 dpm/hr/10^3 cells. The “Tyrosinase Cellular” value ([1]; White-Adult-NHEM, 1 mM) was 15257 dpm/hr/10^3 cells, the “Tyrosinase Cellular relative to Control” value ([1]; White-Adult-NHEM, 1 mM) was 1.09 X and the “Tyrosinase In Situ” value ([1]; White-Adult-NHEM, 1 mM) was 7.05 dpm/hr/10^3 cells. For the same compound, the “Tyrosinase In Situ relative to Control” value ([1]; White-Adult-NHEM, 1 mM) was 1.27 X, the “Tyrosinase Media relative to Control” value ([1]; White-Adult-NHEM, 1 mM) was 1.11 X and the “Tyrosinase Media” value ([1]; White-Adult-NHEM, 1 mM, media from 1 day treatment period) was 29.2 dpm/hr/10^3 cells. For the same compound, the “Tyrosinase Cellular” value ([1]; White-Adult-NHEM, 5 mM) was 16077 dpm/hr/10^3 cells, the “Tyrosinase Cellular relative to Control” value ([1]; White-Adult-NHEM, 5 mM) was 1.15 X and the “Tyrosinase In Situ” value ([1]; White-Adult-NHEM, 5 mM) was 6.18 dpm/hr/10^3 cells. The “Tyrosinase In Situ relative to Control” value ([1]; White-Adult-NHEM, 5 mM) was 1.11 X, the “Tyrosinase Media relative to Control” value ([1]; White-Adult-NHEM, 5 mM) was 1.33 X and the “Tyrosinase Media” value ([1]; White-Adult-NHEM, 5 mM, media from 1 day treatment period) was 48.1 dpm/hr/10^3 cells. For the same compound, the “induction of tyrosinase in S91 cells compared with 5-NBene-2,2-DM (FIG. 2)” value [2] was “Lesser induction”.

In the case of `CC(O)(CO)c1ccccc1` (stereo not drawn) [2-phenyl-1,2-propanediol], the “melanogenesis in S91 cells (≧2-fold increase = significant)” value [3, 5] is reported as “did not induce significant (≧2-fold increase) melanogenesis”.

In the case of `C[C@]12CC[C@@H]3c4ccc(O)cc4CC[C@H]3[C@@H]1CC[C@@H]2O` [β-Estradiol, β-estradiol, reference compound], the “Concentration Required for ≧2-fold Melanin Induction in S91 Cells” value [3] is reported as 500 µM.

With `O=C1O[C@H]([C@@H](O)CO)C(O)=C1O` [ascorbic acid] the “melanogenesis in S91 cells (≧2-fold increase = significant)” value [3, 5] was “did not induce significant (≧2-fold increase) melanogenesis”.

For `O=c1[nH]cc(CO)c(=O)[nH]1` [hydroxymethyl uracil], the “melanogenesis in S91 cells (≧2-fold increase = significant)” value [3, 5] was “did not induce significant (≧2-fold increase) melanogenesis”.

`OC1CCCC(O)C1` (stereo not drawn) [1,3-cyclohexanediol] was tested, and the “melanogenesis in S91 cells (≧2-fold increase = significant)” value [3, 5] was “did not induce significant (≧2-fold increase) melanogenesis”.

In the case of `CCCC[N+](CCCC)(CCCC)CCCC.[Cl-]` [tetrabutylammonium chloride], the “melanogenesis in S91 cells (≧2-fold increase = significant)” value [3] is reported as “did not induce significant (≧2-fold increase) melanogenesis”.

For `CCCCCCCC/C=C\CCCCCCCC(=O)O` [oleic acid], the “melanogenesis in S91 cells (≧2-fold increase = significant)” value [3, 5] was “did not induce significant (≧2-fold increase) melanogenesis”.

With `CCCCCCCCCCCCC/C=C/[C@@H](O)[C@@H](N)CO` [D-sphingosine, reference compound] the “effect on melanogenesis induced by propylene glycol in S91 cells” value [3] was “enhanced melanogenesis induced by propylene glycol” and the “melanogenesis in S91 cells (in words)” value [3] was “induced melanogenesis”.

For `O=CC[C@H](O)[C@H](O)CO` [2-deoxy-D-ribose], the “melanogenesis in S91 cells (≧2-fold increase = significant)” value [3, 5] was “did not induce significant (≧2-fold increase) melanogenesis”.

With `CC(CO)CO` [2-M-1,3-PG, 2-Methyl-1,3-Propanediol] the “Concentration Required for ≧2-fold Melanin Induction in S91 Cells” value [3] was 50000 µM, the “Pigmentation Rating Normalized to 1,2-PG” value [4, 6] was 2.9 ± 0.4 and the “Pigmentation Rating Normalized to 1M” value [4, 6] was 0.044 ± 0.006. For the same compound, the “Pigmentation Rating Background Corrected” value ([4]; No Penetration Enhancer, corrected for Nair control, concentrations as E85) was 0.50 ± 0.07, the “Pigmentation Rating” value ([4]; No Penetration Enhancer, sites c and d, 13.61M 1,2-PG, 11.0M 2,3-M-2,3-BD, 11.3M 2-M-1,3-PG, 8.7M 1,2-cs-CPD, 4.0M 3,3-M-1,2-BD) was 0.58 ± 0.08 and the “melanogenesis in guinea pigs (in words)” value ([4]; same relative body position) was “only slightly better melanogenic agents than propylene glycol”. The “relative melanogenesis rating (mean ±SE), scale 0-4” value ([4]; site a (head), PG 13.6M, 2,3-BD 10.95M, 1,2-cs-CPD 10.7M full strength, 3,3-M-1,2-BD 4M in ethanol) was 1.25 ± 0.52 and the “relative melanogenesis rating (mean ±SE), scale 0-4” value ([4]; site c, full strength, 3,3-M-1,2-BD 4M in ethanol) was 0.58 ± 0.08^2.

In the case of `CC(C)O` [2-propanol], the “melanogenesis in S91 cells (≧2-fold increase = significant)” value [3, 5] is reported as “did not induce significant (≧2-fold increase) melanogenesis”.

`O=C(O)C(O)C(O)C(=O)O` (stereo not drawn) [tartaric acid] was tested, and the “melanogenesis in S91 cells (≧2-fold increase = significant)” value [3, 5] was “did not induce significant (≧2-fold increase) melanogenesis”.

For `CC1CNCCN1S(=O)(=O)c1cccc2cnccc12` (stereo not drawn) [H7, 1-[5-isoquinolinyl-sulfonyl]-2-methyl-piperazine, reference compound], the “effect on melanogenesis induced by propylene glycol in S91 cells” value [3] was “enhanced melanogenesis induced by propylene glycol” and the “melanogenesis in S91 cells (in words)” value [3] was “induced melanogenesis”.

With 1-propanol the “melanogenesis in S91 cells (≧2-fold increase = significant)” value [3, 5] was “did not induce significant (≧2-fold increase) melanogenesis”.

`CNC[C@H](O)[C@@H](O)[C@H](O)[C@H](O)CO` [N-methyl-D-glucamine] was tested, and the “melanogenesis in S91 cells (≧2-fold increase = significant)” value [3, 5] was “did not induce significant (≧2-fold increase) melanogenesis”.

`CCCCCCCCCCCCN1CCCCCC1=O` [Azone®] was tested, and the “melanogenesis in S91 cells (≧2-fold increase = significant)” value [3, 5] was “did not induce significant (≧2-fold increase) melanogenesis”.

`CC(C)Cn1c(=O)n(C)c(=O)c2[nH]cnc21` [IBMX, 3-isobutyl-1-methylxanthine, reference compound] was tested, and the “Tyrosinase In Situ” value ([1]; 5 day treatment, 300 mM 1,2-PG, 25 mM 3,3-M-1,2-BD, 5 mM 5-NBene-2,2-DM, 0.1 mM IBMX) was 25.3 dpm/hr/10^3 Cells and 26.1 dpm/hr/10^3 Cells, the “Tyrosinase 200 g Partic” value [1, 7] was 2189 dpm/hr/10^3 Cells and 1834 dpm/hr/10^3 Cells and the “Tyrosinase Cellular” value [1, 7] was 10910 dpm/hr/10^3 Cells and 11737 dpm/hr/10^3 Cells. For the same compound, the “Tyrosinase 17300 g Partic” value ([1]; Post 200 X g, 5 day treatment, concentrations as E130) was 220 dpm/hr/10^3 Cells and 260 dpm/hr/10^3 Cells, the “Tyrosinase Media” value ([1]; Post 17300 X g, 5 day treatment, concentrations as E130) was 2698 dpm/hr/10^3 Cells and 2935 dpm/hr/10^3 Cells and the “Tyrosinase 200 g Partic, relative to controls (in parentheses)” value [1, 8] was “(5.86X)”. For the same compound, the “Tyrosinase 17300 g Partic, relative to controls (in parentheses)” value [1, 8] was “(2.10X)”, the “Tyrosinase Cellular, relative to controls (in parentheses)” value [1, 8] was “(1.11X)” and the “Tyrosinase In Situ, relative to controls (in parentheses)” value [1, 8] was “(1.62X)”. For the same compound, the “Tyrosinase Media, relative to controls (in parentheses)” value [1, 8] was “(1.81X)”, the “Tyrosinase dpm/hr 10^3 Cells” value [2, 9] was 765 ± 53 dpm/hr/10^3 Cells and the “Tyrosinase dpm/hr ug Protein” value [2, 9] was 2161 ± 41 dpm/hr/ug Protein.

For “Bisindolylmaleimide [GF109203X, reference compound]”, the “effect on induction of tyrosinase by 5-NBene-2,2-DM in S91 cells (in words)” value [2] was “augmentation of basal and 5-NBene-2,2-DM-induced tyrosinase levels”, the “Tyrosinase Relative to Control” value ([2]; 0.1 uM GF109203X) was 2.6 and the “Tyrosinase dpm/hr/ug Protein” value ([2]; 0.1 uM GF109203X) was 1025 dpm/hr/ug Protein. The “Tyrosinase Relative to Control” value ([2]; 1 uM GF109203X) was 6.1X and the “Tyrosinase dpm/hr/ug Protein” value ([2]; 1 uM GF109203X) was 2407 dpm/hr/ug Protein.

For `OC1OCCOC1O` (stereo not drawn) [1,4-Dioxane-2,3-Diol, 1,4-dioxane-2,3-diol], the “Concentration Required for ≧2-fold Melanin Induction in S91 Cells” value [3] was 500 µM.

`O[C@@H]1CCC[C@H]1O` (relative stereo) [1,2-trans-Cyclopentanediol, 1,2-trans-cyclopentanediol] was tested, and the “Concentration Required for ≧2-fold Melanin Induction in S91 Cells” value [3] was 50000 µM.
